From patent US9655975B2, “Prodrug using nitroimidazole” (UNIVERSITY OF TSUKUBA, priority 2012, dated 2017)

What was measured:
Format in all cases: cell-based
[1] = test system: Human pancreatic cancer cells (MIA PaCa-2); experiment: Release of drug from prednisolone prodrug in low-oxygen environment (Example 16), LC/MS; settings: Compound 13 at a concentration of 10, one hour, 20% O2 vs 0.1% O2, LC/MS, FIG. 8
Procedure: Human pancreatic cancer cells (MIA PaCa-2, acquired from Riken Cell Bank) were prepared as a suspension having a cell count of 1×10^4 cells/mL), and dispensed into a 96-well plate. After 24 hours, Compound 13 was added to a concentration of 10 and the cells were cultured in a normal oxygen concentration incubator (20% O2) or at a low-oxygen work station (0.1% O2). One hour layer, the culture medium was recovered, trypsin was added, and the cells were recovered. The recovered cells were disrupted by sonic treatment and the compound was extracted with acetonitrile, following which analysis by LC/MS of the amount of prednisolone released was carried out under the following conditions.
Column used: TSKgel ODS-100Z (particle size, 3 μm; 2 mm×75 mm) column
Measurement wavelength: 250 nm
Eluent A: 0.1 M ammonium acetate
Gradient: 40:60 (Eluent A:Eluent B)→10:90 (20 minutes)
By carrying out this measurement, the amount of compound released in a low-oxygen environment was compared with the amount released in a normal oxygen environment.

[2] = test system: Human pancreatic cancer cells (MIA PaCa-2); experiment: Evaluation of cell survival rate by WST assay, normal vs low oxygen (Example 7, Comparative Example)
Procedure: Human pancreatic cancer cells (MIA PaCa-2, acquired from Riken Cell Bank) were dispensed at a density of 5,000 cells/well and cultured for 24 hours in Dulbecco's modified Eagle medium (DMEM), following which Compound 7 was added to the specified concentration and 6 hours of culturing was carried out at a normal oxygen concentration (20%) or a low oxygen concentration (0.1%). After culturing, DMEM medium replacement was carried out, the compound was removed, and 48 hours of culturing was carried out in a normal oxygen concentration incubator, following which the cell survival rate was analyzed by a WST assay.
Compound 8 below, which is mentioned in WO 2009/018163 A1, was furnished for use. The cell survival rates were compared in tests conducted by the method described in Example 7 on both Compound 8 and a compound within the scope of this invention (aside from the fact that the corresponding linker was —CH2CH2C(═O)—, the manner of bonding between nitroimidazole and the drug was the same; Compound 7 of Example 6).

cultured cells = experiment: Incubation of Compound 5 in cultured cells under low oxygen (Example 4), release of naphthylmethylamine by HPLC; settings: Compound 5 at 1 mM, 6 hours, 20% O2 vs 1% O2, HPLC, FIG. 2
Procedure: This example was carried out to confirm that Compound 5 is reduced in cells within a hypoxic environment, and that naphthylmethylamine is released by a subsequent intramolecular cyclization reaction.
A cell suspension prepared to a cell count of 1×10^4 cells/mL was dispensed into a 96-well plate, and the cells were cultured by 24 hours of incubation at 37° C. After 24 hours, the synthesized Compound 5 was added to the cells in an amount of 1 mM. Following addition, the cells were cultured for 6 hours each in a normal oxygen concentration incubator (20% O2) or at a low-oxygen work station (1% O2). The culture medium was then recovered, 50 μL of Trypsin/EDTA was added and 5 minutes of incubation was carried out, following which the cells were stripped away and added to the medium that was earlier recovered. Next, the recovered sample was freeze-dried overnight, 200 μL of acetonitrile was added, and 30 minutes of ultrasonic cleaning was carried out. In addition, dead cells were precipitated by centrifugal separation (3,000 rpm, 10 min), the supernatant was recovered, and the acetonitrile was removed with a centrifugal evaporator. Next, 200 μL of methanol (for LC/MS) was added to the Eppendorf tube used in centrifugation, the tube contents were passed through a filter (0.2 μm), and LC/MS measurement and high-performance liquid chromatography (HPLC) measurement were carried out. […]

[3] = test system: Human pancreatic cancer cells (MIA PaCa-2); experiment: Incubation of Compound 5 in MIA PaCa-2 cells under low oxygen (Example 5), release by LC/MS; settings: Compound 5 at 10 μM, MIA PaCa-2, 20% O2 vs 0.1% O2, LC/MS, FIG. 3
Procedure: Human pancreatic cancer cells (MIA PaCa-2, acquired from Riken Cell Bank) were prepared as a suspension having a cell count of 1×10^4 cells/mL), and dispensed into a 96-well plate. After 24 hours, Compound 5 was added to a concentration of 10 μM and the cells were cultured, in a normal oxygen concentration incubator (20% O2) or at a low-oxygen work station (0.1% O2). After a given time had elapsed, the culture medium was recovered, trypsin was added and the cells were recovered. The recovered cells were disrupted by sonic treatment, the compound was extracted with acetonitrile, and analysis by LC/MS was carried out under the following conditions.
Column used: Lachrom Ultra C18 (particle size, 2 μm; 2 mm×50 mm) column
Measurement wavelength: 220 nm
Eluent A: 0.1% TFA-containing milliQ
Gradient: 95:5 (Eluent A:Eluent B)→95:5 (5 minutes)→30:70 (15 minutes)
By carrying out this measurement, the amount of compound released in a low-oxygen environment and the amount of compound released in a normal oxygen environment were compared.

For `C[C@]12C=CC(=O)C=C1CC[C@@H]1[C@@H]2[C@@H](O)C[C@@]2(C)[C@H]1CC[C@]2(O)C(=O)COC(=O)CCn1ccnc1[N+](=O)[O-]` [Compound 13], the “amount of prednisolone released in low-oxygen vs normal oxygen environment” value [1] was “much prednisolone is released in a low-oxygen environment”.
For `COc1cccc2c1C(=O)c1c(O)c3c(c(O)c1C2=O)CC(O)(C(=O)CO)CC3OC1CC(NC(=O)CCn2ccnc2[N+](=O)[O-])C(O)C(C)O1` (centres unmarked) [Compound 7], the “cell survival rate at low oxygen concentration compared with normal oxygen concentration” value ([2]; 6 hours at 20% or 0.1% O2, then 48 hours normal oxygen, WST assay, FIG. 4) was “significantly lowers the survival rate of human pancreatic cancer cells at a low-oxygen concentration compared with a normal oxygen concentration” and the “cytotoxicity compared with known Compound 8” value ([2]; method of Example 7, MIA PaCa-2, FIG. 5) was “significantly higher cytotoxicity”.
`O=C(CCn1ccnc1[N+](=O)[O-])NCc1cccc2ccccc12` [Compound 5, N-Naphthylmethyl-3-(2-Nitro-1H-Imidazolyl)propionylamide] was tested, and the “amount of naphthylmethylamine released in low-oxygen vs normal oxygen environment” value (cultured cells) was “much naphthylmethylamine is released in a low-oxygen environment” and the “amount of naphthylmethylamine released in low-oxygen vs normal oxygen environment” value [3] was “much naphthylmethylamine is released in a low-oxygen environment”.
